Earlier results in patent US20250281528A1, “GRAPHENE OXIDE-CATIONIC SILVER NANOCOMPOSITES AND THEIR USE AS BROAD-SPECTRUM ANTIMICROBIAL AGENTS” (priority 2020, published 2025).

Key:
Conditions in all cases: literature values, refs in Table 6 footnotes
[1] = tested on: Streptococcus pyogenes
[2] = tested on: Salmonella typhi
[3] = tested on: Vibrio cholerae
[4] = tested on: Candida albicans

O=[N+]([O-])[O-].[Ag+] [AgNO3, Silver Nitrate]
MIC [1]: 80 ^c μg/mL | MIC [2]: 110 ^c μg/mL | MIC [3]: 70 ^c μg/mL | MIC [4]: 4.9 ^f μg/mL
